{
  "source": "patent US20030203963A1",
  "about": "“Antimicrobial agent” (priority 2001, published 2003)",
  "key": {"B. cereus 204": {"tested_on": "B. cereus 204", "assay": "Test in cooked minced chicken slurry", "type": "cell-based, Bacillus cereus", "details": "2000 ppm; minced chicken slurry at 8° C., pH 6.42, TCC010704", "description": "(§1) 1 kg of minced chicken (mainly lean meat) was purchased from the local butcher. This was mixed with 1 litre of BHI, mixed and dispensed as 100 g samples prior to autoclaving. When still warm, the meat was re-mixed thoroughly. When cooked, the meat was inoculated with 1 ml of 10^5 spores or cells (from an overnight broth), and re-mixed. The samples were then divided into 3×25 g portions, to which 0.5 ml of filter-sterilised APP20010215 was added (as 5% or 10% stock solutions) or water. An initial viable count was taken, and the samples then incubated at 8° C. and tested twice weekly. The pH of the chicken slurry was 6.42."}, "[1]": {"details": "tests disclosed by Baute et al., Phytochemistry 33 (1993); cited from earlier work"}, "L. monocytogenes S23": {"tested_on": "L. monocytogenes S23", "assay": "In vitro cidal experiment", "type": "cell-based, Listeria monocytogenes", "details": "ambient temperature", "description": "100 μl of SDW (sterile deionised water) or APP sample E002012 was added to 890 μl 10 mM HEPES buffer (pH 7). […] After this time the bacteria were enumerated by viable count. The concentration of the APP sample was 24.7 μg/ml."}, "Ps. fluorescens": {"tested_on": "Ps. fluorescens", "assay": "Chicken soup at 8° C. (summary)", "type": "cell-based, Pseudomonas fluorescens", "details": "Chicken soup at 8° C. pH 5.8", "source_text": "(§2) A local supermarket brand of cream of chicken soup was used as a model food system. 600 g packs were purchased from the local supermarket. This was a ‘fresh home-made type’ of soup that was stored in the chill cabinet, with a short shelf life. It was chosen because it is a rich, nutritious food system containing a range of food components including meat, dairy and vegetable.\n(§3) Ingredients were labelled as: chicken stock (water, duck fat, chicken, salt, flavourings, yeast extracts, pork gelatine, glucose syrup, vegetable concentrate, milk protein, sugar, malto-dextrin, vegetable oil, citric acid, lactose, chicken fat), ilk, chicken (9%), cream (8%), onion, potato, vegetable oil, modified maize starch, wheat flour, lemon juice, salt, white pepper. pH 5.912. Protein: 3.3%; carbohydrate: 4.7%; fat: 7.2%; fibre: 0.2%; sodium: 0.1%\n(§4) For the test the soup was mixed 2:1 in water (to facilitate sampling and mixing) and sterilised by autoclaving at 121° C. for 15 minutes. For each experiment the pH of the soup was recorded; this was between pH 5.79-5.88.\nFor TCS010412/8 (which was incubated at 8° C.), APP batch number APP20010213 (concentration 169 mg APP/ml) was used to prepare tests containing 0, 2000 or 4000 ppm APP. […]\nFor TCS010521/8 (incubated at 8° C.), samples were prepared in 27.8 g quantities. […]"}, "Salm Typhimurium S29": {"tested_on": "Salm Typhimurium S29", "assay": "Chicken soup trial at 8° C.", "type": "cell-based, Salmonella Typhimurium", "details": "chicken soup at 8° C., TCSM010521, APP215", "source_text": "as §2, §3, §4\n(§5) For TCS010521/8 (incubated at 8° C.), samples were prepared in 27.8 g quantities. 1.5 g of an APP stock solution was added, and the tests inoculated with 0.3 ml of a suitably diluted cell or spore suspension to give a final inoculum of ca. 10^3 cfu/g. APP was tested at 0, 500 and 1000 ppm, and batch number APP20010213 (at 169 mg/ml) was used. […]"}, "S. cerevisiae 9763": {"tested_on": "S. cerevisiae 9763", "assay": "Chicken soup trial at 8° C.", "type": "cell-based, Saccharomyces cerevisiae", "details": "for Effect on growth: chicken soup at 8° C., TCSM010521, APP215", "source_text": "as §2, §3, §4\nFor TCS010521/8 (incubated at 8° C.), samples were prepared in 27.8 g quantities. 1.5 g of an APP stock solution was added, and the tests inoculated with 0.3 ml of a suitably diluted cell or spore suspension to give a final inoculum of ca. 10^3 cfu/g. APP was tested at 0, 500 and 1000 ppm, and batch number APP20010213 (at 169 mg/ml) was used. The tests were sampled by viable count and then incubated at 8° C. and tested on a twice-weekly basis."}, "Salmonella S19": {"tested_on": "Salmonella S19", "assay": "Chicken soup trial at 8° C.", "type": "cell-based, Salmonella sp.", "details": "500-1000 ppm; chicken soup at 8° C., TCSM010521, APP215", "source_text": "as §2, §3, §4, §5"}, "Salmonella sp. S19": {"tested_on": "Salmonella sp. S19", "assay": "Bioscreen growth inhibition test", "type": "cell-based", "details": "BS010510, 24 h/30, APP20010213", "description": "For broth cultures and Bioscreen testing most bacteria were grown in Brain Heart Infusion (BHI, Oxoid, pH 7.4). Lactobacillus sake A10 was grown in de Man, Rogosa, Sharpe medium ([…], Oxoid). Yeasts were grown in Sabouraud Liquid medium (SLM, Oxoid). Most bacteria were cultured at 30° C. Lactic acid bacteria were grown on solid medium in enriched CO2 atmosphere. Clostridium species were grown in Reinforced Clostridial Medium (RCM) at 37° C. anaerobically. Brochothrix thermosphacta fungi and yeasts were grown at 25° C. Fungi were cultured on Malt Extract Agar (MEA, Oxoid).\nAn automated Microbiology Reader Bioscreen C was used to measure growth curves of the strains in the presence and absence of APP. The Bioscreen C measures the development of turbidity (i.e. growth) kinetically by vertical photometry in 200 wells of a honeycomb microtitre plate, simultaneously. The system consists of a Bioscreen C analyser, which is an incubator and measurement unit, integrated with a PC, software (BioLink v 5.30), printer and a ‘Honeycomb 2’ cuvette multiwell plate. Growth curve data can be analysed within the BioLink software or exported to programs such as Excel.\nBroth culture media were dispensed in 270 μl volumes into the wells as directed. […] (depending on the micro-organism under investigation) with readings taken every 20 minutes after the trays were shaken. […]"}, "L. monocytogenes 272": {"tested_on": "L. monocytogenes 272", "assay": "Test in cooked minced chicken slurry", "type": "cell-based, Listeria monocytogenes", "description": "as §1"}},
  "data": [
    {"smiles": "O=C1CC(CO)OC=C1O", "note": "(centres unmarked) [APP, Ascopyrone P]", "values": [
      {"measurement": "Effect on growth", "setting": "B. cereus 204", "value": "Partial inhibition by 2000 ppm"},
      {"measurement": "Function as an antibiotic", "setting": "[1]", "value": "did not function satisfactorily as an antibiotic"},
      {"measurement": "Viable count after 2 h incubation", "setting": "L. monocytogenes S23; 24.7 μg/ml APP E002012, 10 mM HEPES buffer (pH 7)", "value": "1.3 × 10^7"},
      {"measurement": "Listeria counts after 2 h incubation", "setting": "L. monocytogenes S23; 24.7 μg/ml APP, buffer", "value": "remained steady"},
      {"measurement": "Total inhibition (effect on growth of target organism by 2000 ppm APP)", "setting": "Ps. fluorescens", "value": "Ps. fluorescens"},
      {"measurement": "Total inhibition for", "setting": "Salm Typhimurium S29; 500 ppm", "value": "Total inhibition by 500 ppm for 25 d"},
      {"measurement": "Total inhibition for", "setting": "Salm Typhimurium S29; 1000 ppm", "value": "Total inhibition by 1000 ppm for >27 d"},
      {"measurement": "Effect on growth", "setting": "S. cerevisiae 9763; 500 ppm", "value": "No effect with 500 and 1000 ppm"},
      {"measurement": "Effect on growth", "setting": "S. cerevisiae 9763; 1000 ppm", "value": "No effect with 500 and 1000 ppm"},
      {"measurement": "No inhibition (effect on growth of target organism by APP)", "setting": "S. cerevisiae 9763; Chicken soup at 8° C. pH 5.8, (1000 ppm)", "value": "S. cerevisiae (1000"},
      {"measurement": "Total inhibition for", "setting": "Salmonella S19", "value": "Total inhibition by 500-1000 ppm for 22 d"},
      {"measurement": "APP level causing total inhibition", "setting": "Salmonella sp. S19", "value": 4000, "unit": "ppm"},
      {"measurement": "Effect on growth", "setting": "L. monocytogenes 272; 2000 ppm, minced chicken slurry at 8° C., pH 6.42, TCC010704", "value": "Slight inhibition by 2000 ppm only"},
      {"measurement": "No inhibition (effect on growth of target organism by 2000 ppm APP)", "setting": "L. monocytogenes 272; Cooked minced chicken slurry at 8° C. pH 6.42, organism printed in brackets", "value": "(L. monocytogenes)"}
    ]}
  ]
}
